Test results as given in US20240166755A1, “CHIMERIC ANTIGEN RECEPTORS TARGETING CANCER” (University of Southern California, priority 2016, published 2024).

Assays:
[1] = system: Blinatumomab induced cell death of RAJI-GLuc cells mediated by T cells; assay: Blinatumomab-induced, T cell-mediated death of RAJI-GLuc cells and its block by drugs (GLuc assay); format: cell-based, human
[2] = system: CAR-T cells induced death of RAJI-GLuc cells; assay: Effect of drugs on CAR-T cell-induced death of RAJI-GLuc cells (GLuc assay); format: cell-based, human; conditions: for CAR-T cells induced death of RAJI-pLenti-GLuc cells / CAR-T cell-induced death of RAJI-pLenti-GLuc cells / CAR-T cells induced cell death: CD19Bu12 CAR-T cells; for CAR-T cell-induced death of RAJI-pLenti-GLuc cells: versus media alone; for CAR-T cell induced cell death: FMC63 and CD19MM CAR-T cells, Imatinib 50 nM and 500 nM, Nilotinib 10 nM and 100 nM, Axitinib
Lck = Lck (Homo sapiens, UniProt P06239); conditions: Lck versus Fyn; cited from earlier work
[3] = system: target cells expressing their respective target antigen; assay: Jurkat-NFAT-GFP assay, co-culture with target cells expressing the respective target antigen (Table 28); conditions: Jurkat-NFAT-GFP cells expressing the CAR; cell line(s) giving greater % GFP positive cells than parental
NF-κB = NF-κB luciferase reporter assay in 293FT cells; format: cell-based; conditions: upon treatment with AP20187, versus untreated
Description: NF-κB reporter assay was carried out essentially as described (Chaudhary et al., Oncogene 18:5738-46, 1999). The indicated constructs were transiently transfected in 293FT cells along with a luciferase reporter construct driven by 4 copies of NF-κB binding site and a RSV-LacZ reporter construct. Cells were left untreated or treated with AP20187, which dimerizes the FKBP domains, resulting in activation of K13 signaling. Approximately 24 hr later, cells were lysed and NF-κB-Luc and LacZ activities measured in cell lysates. NF-κB-Luc activity was normalized relative to LacZ activity to control for difference in transfection efficiency. […] Thus, activity of K13 and Tax can be controlled by fusion with FKBP and subsequent administration of AP20187 when they are expressed alone or as part of CAR constructs.
It would be useful to have novel mutants of K13 with varying levels of NF-κB activity for the purpose of adoptive cellular therapy and other applications. Site-directed mutagenesis was conducted using Quickchange site-directed kit (Stratagene) to generate several point mutants of K13 in which the different amino acids of K13 (SEQ ID NO:2629) were mutated. For example, in the mutant K19A the amino acid Lysine at position 19 is mutated to alanine. […] Approximately 24 hr later, cells were lysed and NF-κB-Luc and LacZ activities measured in cell lysates. […]

[4] = at the indicated concentrations

Sequence of Lck (P06239 whole entry, species assumed): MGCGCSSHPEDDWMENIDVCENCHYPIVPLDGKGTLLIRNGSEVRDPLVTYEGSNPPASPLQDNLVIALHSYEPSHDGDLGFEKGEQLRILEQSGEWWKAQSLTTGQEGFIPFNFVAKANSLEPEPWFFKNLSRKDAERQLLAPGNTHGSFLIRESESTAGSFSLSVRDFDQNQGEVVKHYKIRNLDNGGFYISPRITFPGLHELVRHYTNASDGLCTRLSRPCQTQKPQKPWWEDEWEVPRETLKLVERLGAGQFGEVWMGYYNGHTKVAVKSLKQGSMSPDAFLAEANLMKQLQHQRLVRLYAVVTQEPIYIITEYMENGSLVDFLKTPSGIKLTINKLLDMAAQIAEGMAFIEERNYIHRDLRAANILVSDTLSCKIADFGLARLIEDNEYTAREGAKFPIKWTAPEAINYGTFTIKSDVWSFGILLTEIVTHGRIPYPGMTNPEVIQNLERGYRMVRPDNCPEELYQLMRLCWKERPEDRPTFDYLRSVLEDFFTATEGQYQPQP

COc1cc(-c2nn([C@H]3CC[C@H](N4CCN(C(C)=O)CC4)CC3)c3ncnc(N)c23)ccc1NC(=O)c1cc2ccccc2n1C [A-770041]
cell death induced by combination of Blinatumomab with T cells ([1]; 100 nM): partially blocked | cell death induced by combination of Blinatumomab with T cells ([1]; 200 nM): complete inhibition | CAR-T cells induced death of RAJI-pLenti-GLuc cells ([2]; 100 nM and 200 nM): near complete inhibition | selective against Fyn (Lck): 300 fold

COc1cc(Nc2ncc3c(n2)-c2ccc(Cl)cc2C(c2c(F)cccc2OC)=NC3)ccc1C(=O)O [Alisertib]
Blinatumomab induced cell death mediated by T cells [1, 4]: only a minimal effect | CAR-T cell-induced death of RAJI-pLenti-GLuc cells [2]: mild to modest inhibition

CC(C)c1cc(C(C)C)c(CC(=O)NS(=O)(=O)Oc2c(C(C)C)cccc2C(C)C)c(C(C)C)c1 [Avasimibe]
Blinatumomab induced cell death mediated by T cells ([1]; 1 μM): blocked | CAR-T cells induced cell death ([2]; 100 nM): no significant effect | CAR-T cells induced cell death ([2]; 1 μM): completely blocked

CNC(=O)c1ccccc1Sc1ccc2c(/C=C/c3ccccn3)n[nH]c2c1 [Axitinib]
CAR-T cell induced cell death [2]: no effect

COc1cc(Nc2ncc(F)c(Nc3ccc4c(n3)N(COP(=O)(O)O)C(=O)C(C)(C)O4)n2)cc(OC)c1OC [Fosatamatinib]
Blinatumomab induced cell death mediated by T cells [1, 4]: only a minimal effect | CAR-T cell-induced death of RAJI-pLenti-GLuc cells [2]: mild to modest inhibition

Cc1ccc(NC(=O)c2ccc(CN3CCN(C)CC3)cc2)cc1Nc1nccc(-c2cccnc2)n1 [Imatinib]
CAR-induced cell death ([2]; CD19MM CAR-T cells, E:T 5:1, 4 h, indicated concentrations): no effect | CAR-T cell induced cell death [2]: no effect

Cc1cn(-c2cc(NC(=O)c3ccc(C)c(Nc4nccc(-c5cccnc5)n4)c3)cc(C(F)(F)F)c2)cn1 [Nilotinib]
CAR-T cell induced cell death [2]: no effect

CN1CCN(CCOc2cc(OC3CCOCC3)c3c(Nc4c(Cl)ccc5c4OCO5)ncnc3c2)CC1 [Saracatinib]
CAR-T cells induced death of RAJI-pLenti-GLuc cells ([2]; concentration not given): no significant effect

CD8SP-CD22-m971-(vL-vH)-Myc-BBz-T2A-PAC(091515-A02)[SEQ ID NO: 1519]
Positive Cell Line on co-culture assay [3]: RAJI, NALM6

CD8SP-GD3-KM-641-(vL-vH)-Myc-z-P2A-K13-Flag-T2A-PAC(051016-D04)[SEQ ID NO: 1065]
Positive Cell Line on co-culture assay [3]: MEL624

FKBPX2-K13: K13 in fusion with two copies of FKBP dimerization domain
K13- and HTLV2-Tax RS mutant-induced NF-κB-Luc activity (NF-κB): increase
